Test results taken from patent US20240284907A1, “NOVEL DERIVATIVES OF NON-CODED AMINO ACIDS AND THEIR USE AS HERBICIDES” (FortePhest LTD., priority 2021, published 2024).

System: Seeds of Lettuce R. (Super-Jericho)
Assay: Filter paper bioassay with lettuce seeds: germination and early plant development, Minimal Effective Concentration (MEC)
Type: in vivo
Conditions: lettuce seeds on filter paper, 0 to 1 mmol/l, visually assessed after 6 days
Excerpt: Materials: Seeds of Lettuce R. (Super-Jericho, non-sterilized) were obtained from Ben Shahar Moshe Ltd., 99% purity. The test compounds listed in the Table 2 below were synthetized de novo or purchased from different vendors.
Filter Paper Bioassays with Lettuce seeds: The protocol is following Bertin et al. 2009 and Movellan et al. 2014 with specified modifications as described below.
Seeds were placed on Whatman no. 1 filter paper (Whatman, Middlesex, U.K.) in Petri dishes (10 seeds per plate) with 2.0 ml of aqueous solution of a test material in concentration ranged from 0 (control) to 1 mmol/l were placed in a tray tilted at 45[…]. The trays were kept in dark for 48 hours and then transferred to the growth chamber with 6/18 dark/light cycle for 4 days. Each experiment was performed at least with two repeats.
The development of plants' radicle and shoots were visually assessed 6 days after the beginning of the test to determine Minimal Effective Concentration (MEC) of a test material. In the context of the invention, MEC is defined as the lowest concentration level of a test material that caused deviation (absence of germination or malformation of radicle or shoots) from the plant's development in the Control group.

| Compound | Score (activity score of Minimal Effective Concentration, MEC) |
| --- | --- |
| 2,2-difluoro-2-[4-(trifluoromethyl)pyrimidin-2-yl]acetic acid [compound 6652] | Moderate (0.1 mM) |
| 2,2-difluoro-2-{2-[3-fluoro-5-(trifluoromethyl)pyridin-2-yl]-1,3-thiazol-4-yl}acetic acid [compound 5736] | Moderate (0.1 mM) |
| 2,2-difluoro-2-{6-[2-(trifluoromethyl)-1,3-thiazol-4-yl]pyridin-2-yl}acetic acid [compound 6658] | Moderate (0.1 mM) |
| 2-(1,2,3-thiadiazol-4-yl)acetic acid [compound 5748] | Moderate (0.1 mM) |
| 2-(1H-1,2,4-triazol-5-yl)ethan-1-amine [compound 592] | weak |
| 2-(2,5-dichloro-1,3-thiazol-4-yl)ethan-1-amine [compound 5691] | Strong (0.01 mM) |
| 2-(2,5-dichlorothiophen-3-yl)-2-oxoacetic acid [compound 5631] | Weak (Higher than 0.1 mM) |
| 2-(2,6-dibromopyridin-4-yl)ethan-1-amine [compound 6612] | Moderate (0.1 mM) |
| 2-(2,6-dichloropyridin-4-yl)-2,2-difluoroacetic acid [compound 6628] | Weak (Higher than 0.1 mM) |
| 2-(2-bromopyridin-4-yl)ethan-1-amine [compound 688] | Weak (Higher than 0.1 mM) |
| 2-(2-chloro-1,3-benzothiazol-4-yl)-2,2-difluoroacetic acid [compound 5786] | Moderate (0.1 mM) |
| 2-(2-ethoxyethoxy)ethyl(2-chloro-1,3-thiazol-4-yl)acetate [compound 5800] | Strong (0.01 mM) |
| 2-(2-phenoxypyridin-4-yl)ethan-1-amine [compound 6625] | Weak (Higher than 0.1 mM) |
| 2-(3-chloro-1,2-thiazol-4-yl)-2,2-difluoroacetic acid [compound 5773] | Moderate (0.1 mM) |
| 2-(4-methylphenyl)-2-oxoethyl(2-chloro-1,3-thiazol-4-yl)acetate [compound 5795] | Moderate (0.1 mM) |
| 2-(6-bromopyridin-3-yl)-2,2-difluoroacetic acid [compound 6620] | Strong (0.01 mM) |
| 2-(6-bromopyrimidin-4-yl)ethan-1-amine [compound 6621] | Strong (0.01 mM) |
| 2-(thiophen-3-yl)ethane-1-thiol [compound 5601] | Moderate (0.1 mM) |
| 2-[2-(2,5-dichlorothiophen-3-yl)ethyl]-1,4,5,6-tetrahydropyrimidin-5-ol [compound 5777] | Weak (Higher than 0.1 mM) |
| 2-[2-(4-chloro-2-fluorophenyl)-1,3-thiazol-4-yl]-2,2-difluoroacetic acid [compound 5734] | Moderate (0.1 mM) |
| 2-amino-2-(2,5-dichlorothiophen-3-yl)acetic acid [compound 5659] | Weak (Higher than 0.1 mM) |
| 2-amino-3-(1H-1,2,4-triazol-1-yl)propanoic acid dihydrochloride [compound 5633, 2-amino-3-(1H-1,2,4-triazol-1-yl)propanoic acid dihydrochloride [HCl]] | Strong (0.01 mM) |
| 2-bromo-6-phenoxypyridine [compound 6645] | Strong (0.01 mM) |
| 2-bromo-N-[(2,5-dichlorothiophen-3-yl)methyl]pyridine-4-carboxamide [compound 5614] | Moderate (0.1 mM) |
| 2-bromopyridine-4-carboxamide [compound 6600] | Weak (Higher than 0.1 mM) |
| 2-bromopyridine-4-carboxylic acid [compound 692] | Weak (Higher than 0.1 mM) |
| 2-carbamimidamido-N-[2-(2,5-dichlorothiophen-3-yl)ethyl]acetamide [compound 5726] | Moderate (0.1 mM) |

| Compound | Score (activity score of Minimal Effective Concentration, MEC) |
| --- | --- |
| 2-{2-[3-fluoro-5-(trifluoromethyl)pyridin-2-yl]-1,3-thiazol-4-yl}acetic acid [compound 5770] | Weak (Higher than 0.1 mM) |
| 2-{[(2,5-dichlorothiophen-3-yl)methyl]amino}acetic acid [compound 5615] | Weak (Higher than 0.1 mM) |
| 3-(1H-1,2,4-triazol-1-yl)propanoic acid [compound 5628] | Weak (Higher than 0.1 mM) |
| 3-(thiophen-3-yl)propan-1-amine [compound 593] | weak |
| 3-(thiophen-3-yl)propane-1,2-diol [compound 5604] | Moderate (0.1 mM) |
| 3-{[(2,5-dichlorothiophen-3-yl)methyl]amino}-2,2-difluoropropanoic acid [compound 5624] | Weak (Higher than 0.1 mM) |
| 4-(2,5-dichlorothiophen-3-yl)butanoic acid [compound 597] | Moderate (0.1 mM) |
| 6-bromopyridine-2-carbonitrile [compound 6670] | Weak (Higher than 0.1 mM) |
| O=C(O)C(O)Cc1cc(Cl)sc1Cl (stereo not drawn) [compound 585, 3-(2,5-dichlorothiophen-3-yl)-2-hydroxypropanoic acid] | moderate |
| NCc1cc(Cl)sc1Cl [compound 587, 1-(2,5-dichlorothiophen-3-yl)methanamine] | weak |
| NCCc1ccsc1 [compound 588, 2-(thiophen-3-yl)ethan-1-amine] | weak |
| OCCc1ccsc1 [compound 589, 2-(thiophen-3-yl)ethan-1-ol] | strong |
| NCC(O)c1ccsc1 (stereo not drawn) [compound 590, 2-amino-1-(thiophen-3-yl)ethan-1-ol] | weak |
| NC(=O)Cc1ccsc1 [compound 591, 2-(thiophen-3-yl)acetamide] | moderate |
| O=C(O)c1nc(Cl)sc1Cl [compound 596, 2,5-dichloro-1,3-thiazole-4-carboxylic acid] | Weak (Higher than 0.1 mM) |
| CCOC(=O)C(NC(C)=O)C(F)(F)c1nnc(CCl)s1 (stereo not drawn) [compound 598, ethyl3-[5-(chloromethyl)-1,3,4-thiadiazol-2-yl]-2-acetamido-3,3-difluoropropanoate] | Weak (Higher than 0.1 mM) |
| Cl.NC(Cc1n[nH]c2ccccc12)C(=O)O (stereo not drawn) [compound 599, 2-amino-3-(1H-indazol-3-yl)propanoic acid hydrochloride[HCl]] | Moderate (0.1 mM) |
| O=C(O)C(O)Cc1ccnc(Br)c1 (stereo not drawn) [compound 680, 3-(2-bromopyridin-4-yl)-2-hydroxypropanoic acid] | Weak (Higher than 0.1 mM) |
| Brc1cc(CNCc2ccnc(Br)c2)ccn1 [compound 686, bis[(2-bromopyridin-4-yl)methyl]amine] | Weak (Higher than 0.1 mM) |
| BrCCc1ccnc(Br)c1 [compound 690, 2-bromo-4-(2-bromoethyl)pyridine] | Weak (Higher than 0.1 mM) |
| O=C(O)/C=C/c1ccc(Cl)nc1Cl [compound 694, (2E)-3-(2,6-dichloropyridin-3-yl)prop-2-enoic acid] | Moderate (0.1 mM) |
| NCCSCCc1ccsc1 [compound 5603, 2-{[2-(thiophen-3-yl)ethyl]sulfanyl}ethan-1-amine] | Weak (Higher than 0.1 mM) |
| O=C(NCC(F)(F)C(=O)O)c1cc(Cl)sc1Cl [compound 5605, 3-[(2,5-dichlorothiophen-3-yl)formamido]-2,2-difluoropropanoic acid] | Weak (Higher than 0.1 mM) |
| O=C(O)CCc1cc(Cl)sc1Cl [compound 5606, 3-(2,5-dichlorothiophen-3-yl)propanoic acid] | Moderate (0.1 mM) |
| O=C(O)/C=C/c1cncs1 [compound 5608, (2E)-3-(1,3-thiazol-5-yl)prop-2-enoic acid] | Weak (Higher than 0.1 mM) |
| O=C(Cl)c1nc(Cl)sc1Cl [compound 5613, 2,5-dichloro-1,3-thiazole-4-carbonylchloride] | Weak (Higher than 0.1 mM) |
| CC(=O)Nc1nc(Cl)sc1Cl [compound 5618, N-(2,5-dichloro-1,3-thiazol-4-yl)acetamide] | Moderate (0.1 mM) |
